In patent US20020137929A1, “1 - (3-heterocyclylphenyl) isothiourea, -isourea, -guanidine and -amidine herbicidal agents” (Intellectual Property Department, BASF Aktiengesellschaft, priority 1998, published 2002):

Key:
ECHCG (Barnyardgrass) = experiment: Preemergence herbicidal evaluation; assay type: in vivo, Echinochloa crus-galli; conditions: rated 4-5 weeks after treatment
In short: (§1)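 Scores (0–9) reflect visual comparison with control plants for stand, vigor, malformation, size and chlorosis. Compound was applied to the soil after sowing, before emergence, as an aqueous acetone spray (about 0.0156–0.500 kg/ha), and cups were kept in a greenhouse for 4–5 weeks.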

GALAP (Galium) = experiment: Preemergence herbicidal evaluation; assay type: in vivo, Galium aparine; conditions: rated 4-5 weeks after treatment
In short: as §1

ABUTH (Velvetleaf) = experiment: Preemergence herbicidal evaluation; assay type: in vivo, Abutilon theophrasti; conditions: rated 4-5 weeks after treatment
In short: as §1

[1] = system: SAGPY (Arrowhead (Pygmaea)); experiment: Preemergence weed control under flooded paddy conditions; assay type: in vivo, Sagittaria pygmaea; conditions: rated 3-4 weeks after treatment
In short: (§2)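 Herbicidal effect is scored visually on a 0-9 scale against an untreated control, three to four weeks after compounds are pipetted into the flood water (1.5 to 3 cm deep) over seeds planted in silt loam at 0.5 cm depth. Rates: about 0.0313 to 0.500 kg/ha.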

ZEAMX (Corn, Field) = experiment: Postemergence herbicidal evaluation; assay type: in vivo, Zea mays; conditions: for Herbicidal rating ZEAMX: postemergence
In short: (§3)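 Rate range approx. 0.0156–0.500 kg/ha. Foliar application at 40 psi to ~2-week seedlings; surfactant 0.5% TWEEN 20 in 50/50 acetone/water. Evaluation 4–5 wk post-treatment by 0–9 visual injury score, means of replicate tests.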

[2] = system: IPOHE (Morningglory, Ivyleaf); experiment: Postemergence herbicidal evaluation; assay type: in vivo, Ipomoea hederacea; conditions: for Herbicidal rating IPOHE: postemergence
In short: as §3

CASOB (Sicklepod) = experiment: Preemergence herbicidal evaluation; assay type: in vivo, Cassia obtusifolia; conditions: rated 4-5 weeks after treatment
In short: as §1

[3] = system: GLXMAW (Soybean, Williams); experiment: Preemergence herbicidal evaluation; assay type: in vivo, Glycine max, (L.) Merr. cv Williams; conditions: rated 4-5 weeks after treatment
In short: as §1

AMBEL (Ragweed, Common) [4] = experiment: Preemergence herbicidal evaluation; assay type: in vivo, Ambrosia artemisifolia; conditions: rated 4-5 weeks after treatment
In short: as §1

AMBEL (Ragweed, Common) [5] = experiment: Postemergence herbicidal evaluation; assay type: in vivo, Ambrosia artemisifolia; conditions: for Herbicidal rating AMBEL: postemergence
In short: as §3

SETVI (Foxtail, Green) = experiment: Preemergence herbicidal evaluation; assay type: in vivo, Setaria viridis; conditions: rated 4-5 weeks after treatment
In short: as §1

[6] = system: GLXMAW (Soybean, Williams); experiment: Postemergence herbicidal evaluation; assay type: in vivo, Glycine max, (L.) Merr. cv Williams; conditions: for Herbicidal rating GLXMAW: postemergence
In short: as §3

CYPSE (Flatsedge) = experiment: Preemergence weed control under flooded paddy conditions; assay type: in vivo, Cyperus serotinus; conditions: rated 3-4 weeks after treatment
In short: as §2

Compound: COCCCN1C(=O)CSC1=Nc1cc(-n2c(=O)cc(C(F)(F)F)n(C)c2=O)c(F)cc1Cl [Compound 172, 3-{4-Chloro-2-fluoro-5-{[3-(3-methoxypropyl)-4-oxo-2-thiazolidinylidene]amino}phenyl}-1-methyl-6-(trifluoromethyl)-2,4(1H, 3H)-pyrimidinedione]
- Preemergence herbicidal rating ECHCG (ECHCG (Barnyardgrass); 0.0156 kg/ha): 4.0
- Preemergence herbicidal rating ECHCG (ECHCG (Barnyardgrass); 0.0313 kg/ha): 6.0
- Preemergence herbicidal rating ECHCG (ECHCG (Barnyardgrass); 0.0625 kg/ha): 8.0
- Preemergence herbicidal rating ECHCG (ECHCG (Barnyardgrass); 0.1250 kg/ha): 8.0
- Preemergence herbicidal rating ECHCG (ECHCG (Barnyardgrass); 0.2500 kg/ha): 9.0
- Preemergence herbicidal rating GALAP (GALAP (Galium); 0.0156 kg/ha): 0.0
- Preemergence herbicidal rating GALAP (GALAP (Galium); 0.0313 kg/ha): 0.0
- Preemergence herbicidal rating GALAP (GALAP (Galium); 0.0625 kg/ha): 5.0
- Preemergence herbicidal rating GALAP (GALAP (Galium); 0.1250 kg/ha): 7.0
- Preemergence herbicidal rating GALAP (GALAP (Galium); 0.2500 kg/ha): 9.0
- Preemergence herbicidal rating ABUTH (ABUTH (Velvetleaf); 0.0156 kg/ha): 9.0
- Preemergence herbicidal rating ABUTH (ABUTH (Velvetleaf); 0.0313 kg/ha): 9.0
- Preemergence herbicidal rating ABUTH (ABUTH (Velvetleaf); 0.0625 kg/ha): 9.0
- Preemergence herbicidal rating ABUTH (ABUTH (Velvetleaf); 0.1250 kg/ha): 9.0
- Preemergence herbicidal rating ABUTH (ABUTH (Velvetleaf); 0.2500 kg/ha): 9.0
- herbicidal effect rating, SAGPY ([1]; 0.0313 kg/ha): 6.0
- herbicidal effect rating, SAGPY ([1]; 0.0625 kg/ha): 6.0
- herbicidal effect rating, SAGPY ([1]; 0.1250 kg/ha): 9.0
- herbicidal effect rating, SAGPY ([1]; 0.2500 kg/ha): 9.0
- Postemergence herbicidal rating ZEAMX (ZEAMX (Corn, Field); Rate 0.0313 kg/ha): 5.0
- Postemergence herbicidal rating ZEAMX (ZEAMX (Corn, Field); Rate 0.0625 kg/ha): 5.0
- Postemergence herbicidal rating ZEAMX (ZEAMX (Corn, Field); rate 0.0156 kg/ha): 5.0
- Postemergence herbicidal rating IPOHE ([2]; Rate 0.0313 kg/ha): 9.0
- Postemergence herbicidal rating IPOHE ([2]; Rate 0.0625 kg/ha): 9.0
- Postemergence herbicidal rating IPOHE ([2]; rate 0.0156 kg/ha): 9.0
- Preemergence herbicidal rating CASOB (CASOB (Sicklepod); 0.0156 kg/ha): 1.0
- Preemergence herbicidal rating CASOB (CASOB (Sicklepod); 0.0313 kg/ha): 3.0
- Preemergence herbicidal rating CASOB (CASOB (Sicklepod); 0.0625 kg/ha): 7.0
- Preemergence herbicidal rating CASOB (CASOB (Sicklepod); 0.1250 kg/ha): 9.0
- Preemergence herbicidal rating CASOB (CASOB (Sicklepod); 0.2500 kg/ha): 9.0
- Preemergence herbicidal rating GLXMAW ([3]; 0.0156 kg/ha): 1.0
- Preemergence herbicidal rating GLXMAW ([3]; 0.0313 kg/ha): 2.0
- Preemergence herbicidal rating GLXMAW ([3]; 0.0625 kg/ha): 7.0
- Preemergence herbicidal rating GLXMAW ([3]; 0.1250 kg/ha): 9.0
- Preemergence herbicidal rating GLXMAW ([3]; 0.2500 kg/ha): 9.0
- Preemergence herbicidal rating AMBEL (AMBEL (Ragweed, Common) [4]; 0.0156 kg/ha): 5.0
- Preemergence herbicidal rating AMBEL (AMBEL (Ragweed, Common) [4]; 0.0313 kg/ha): 7.0
- Preemergence herbicidal rating AMBEL (AMBEL (Ragweed, Common) [4]; 0.0625 kg/ha): 9.0
- Preemergence herbicidal rating AMBEL (AMBEL (Ragweed, Common) [4]; 0.1250 kg/ha): 9.0
- Preemergence herbicidal rating AMBEL (AMBEL (Ragweed, Common) [4]; 0.2500 kg/ha): 9.0
- Postemergence herbicidal rating AMBEL (AMBEL (Ragweed, Common) [5]; Rate 0.0313 kg/ha): 9.0
- Postemergence herbicidal rating AMBEL (AMBEL (Ragweed, Common) [5]; Rate 0.0625 kg/ha): 9.0
- Postemergence herbicidal rating AMBEL (AMBEL (Ragweed, Common) [5]; rate 0.0156 kg/ha): 6.0
- Preemergence herbicidal rating SETVI (SETVI (Foxtail, Green); 0.0156 kg/ha): 5.0
- Preemergence herbicidal rating SETVI (SETVI (Foxtail, Green); 0.0313 kg/ha): 7.0
- Preemergence herbicidal rating SETVI (SETVI (Foxtail, Green); 0.0625 kg/ha): 9.0
- Preemergence herbicidal rating SETVI (SETVI (Foxtail, Green); 0.1250 kg/ha): 9.0
- Preemergence herbicidal rating SETVI (SETVI (Foxtail, Green); 0.2500 kg/ha): 9.0
- Postemergence herbicidal rating GLXMAW ([6]; Rate 0.0313 kg/ha): 6.5
- Postemergence herbicidal rating GLXMAW ([6]; Rate 0.0625 kg/ha): 7.0
- Postemergence herbicidal rating GLXMAW ([6]; rate 0.0156 kg/ha): 6.0
- herbicidal effect rating, CYPSE (CYPSE (Flatsedge); 0.0625 kg/ha): 6.0
- herbicidal effect rating, CYPSE (CYPSE (Flatsedge); 0.1250 kg/ha): 9.0
- herbicidal effect rating, CYPSE (CYPSE (Flatsedge); 0.2500 kg/ha): 9.0

Compound: CCN1C(=O)CSC1=Nc1cc(-n2c(=O)cc(C(F)(F)F)n(C)c2=O)c(F)cc1Cl [Compound 159, 3-{4-Chloro-5-[(3-ethyl-4-oxo-2-thiazolidinyl-idene)amino]-2-fluorophenyl}-1-methyl-6-(trifluoromethyl)-2,4(1H,3H)-pyrimidinedione]
- Preemergence herbicidal rating ECHCG (ECHCG (Barnyardgrass); 0.0156 kg/ha): 0.0
- Preemergence herbicidal rating ECHCG (ECHCG (Barnyardgrass); 0.0313 kg/ha): 1.0
- Preemergence herbicidal rating ECHCG (ECHCG (Barnyardgrass); 0.0625 kg/ha): 0.0
- Preemergence herbicidal rating ECHCG (ECHCG (Barnyardgrass); 0.1250 kg/ha): 2.0
- Preemergence herbicidal rating ECHCG (ECHCG (Barnyardgrass); 0.2500 kg/ha): 3.0
- Preemergence herbicidal rating GALAP (GALAP (Galium); 0.0156 kg/ha): 0.0
- Preemergence herbicidal rating GALAP (GALAP (Galium); 0.0313 kg/ha): 0.0
- Preemergence herbicidal rating GALAP (GALAP (Galium); 0.0625 kg/ha): 1.0
- Preemergence herbicidal rating GALAP (GALAP (Galium); 0.1250 kg/ha): 5.0
- Preemergence herbicidal rating GALAP (GALAP (Galium); 0.2500 kg/ha): 5.0
- Preemergence herbicidal rating ABUTH (ABUTH (Velvetleaf); 0.0156 kg/ha): 2.0
- Preemergence herbicidal rating ABUTH (ABUTH (Velvetleaf); 0.0313 kg/ha): 9.0
- Preemergence herbicidal rating ABUTH (ABUTH (Velvetleaf); 0.0625 kg/ha): 9.0
- Preemergence herbicidal rating ABUTH (ABUTH (Velvetleaf); 0.1250 kg/ha): 9.0
- Preemergence herbicidal rating ABUTH (ABUTH (Velvetleaf); 0.2500 kg/ha): 9.0
- herbicidal effect rating, SAGPY ([1]; 0.0313 kg/ha): 0.0
- herbicidal effect rating, SAGPY ([1]; 0.0625 kg/ha): 3.0
- herbicidal effect rating, SAGPY ([1]; 0.1250 kg/ha): 3.0
- herbicidal effect rating, SAGPY ([1]; 0.2500 kg/ha): 6.0
- Herbicidal rating ZEAMX (ZEAMX (Corn, Field); rate 0.0156 kg/ha): 5.0
- Herbicidal rating ZEAMX (ZEAMX (Corn, Field); rate 0.0313 kg/ha): 6.5
- Herbicidal rating ZEAMX (ZEAMX (Corn, Field); rate 0.0625 kg/ha): 7.0
- Herbicidal rating IPOHE ([2]; rate 0.0156 kg/ha): 9.0
- Herbicidal rating IPOHE ([2]; rate 0.0313 kg/ha): 9.0
- Herbicidal rating IPOHE ([2]; rate 0.0625 kg/ha): 9.0
- Preemergence herbicidal rating CASOB (CASOB (Sicklepod); 0.0156 kg/ha): 0.0
- Preemergence herbicidal rating CASOB (CASOB (Sicklepod); 0.0313 kg/ha): 1.0
- Preemergence herbicidal rating CASOB (CASOB (Sicklepod); 0.0625 kg/ha): 3.0
- Preemergence herbicidal rating CASOB (CASOB (Sicklepod); 0.1250 kg/ha): 3.0
- Preemergence herbicidal rating CASOB (CASOB (Sicklepod); 0.2500 kg/ha): 7.0
- Preemergence herbicidal rating GLXMAW ([3]; 0.0156 kg/ha): 1.0
- Preemergence herbicidal rating GLXMAW ([3]; 0.0313 kg/ha): 0.0
- Preemergence herbicidal rating GLXMAW ([3]; 0.0625 kg/ha): 1.0
- Preemergence herbicidal rating GLXMAW ([3]; 0.1250 kg/ha): 2.0
- Preemergence herbicidal rating GLXMAW ([3]; 0.2500 kg/ha): 3.0
- Preemergence herbicidal rating AMBEL (AMBEL (Ragweed, Common) [4]; 0.0156 kg/ha): 1.0
- Preemergence herbicidal rating AMBEL (AMBEL (Ragweed, Common) [4]; 0.0313 kg/ha): 3.0
- Preemergence herbicidal rating AMBEL (AMBEL (Ragweed, Common) [4]; 0.0625 kg/ha): 4.0
- Preemergence herbicidal rating AMBEL (AMBEL (Ragweed, Common) [4]; 0.1250 kg/ha): 6.0
- Preemergence herbicidal rating AMBEL (AMBEL (Ragweed, Common) [4]; 0.2500 kg/ha): 8.0
- Herbicidal rating AMBEL (AMBEL (Ragweed, Common) [5]; rate 0.0156 kg/ha): 4.0
- Herbicidal rating AMBEL (AMBEL (Ragweed, Common) [5]; rate 0.0313 kg/ha): 7.0
- Herbicidal rating AMBEL (AMBEL (Ragweed, Common) [5]; rate 0.0625 kg/ha): 7.0
- Preemergence herbicidal rating SETVI (SETVI (Foxtail, Green); 0.0156 kg/ha): 1.0
- Preemergence herbicidal rating SETVI (SETVI (Foxtail, Green); 0.0313 kg/ha): 8.0
- Preemergence herbicidal rating SETVI (SETVI (Foxtail, Green); 0.0625 kg/ha): 7.0
- Preemergence herbicidal rating SETVI (SETVI (Foxtail, Green); 0.1250 kg/ha): 9.0
- Preemergence herbicidal rating SETVI (SETVI (Foxtail, Green); 0.2500 kg/ha): 7.0
- Herbicidal rating GLXMAW ([6]; rate 0.0156 kg/ha): 5.0
- Herbicidal rating GLXMAW ([6]; rate 0.0313 kg/ha): 5.5
- Herbicidal rating GLXMAW ([6]; rate 0.0625 kg/ha): 7.0
- herbicidal effect rating, CYPSE (CYPSE (Flatsedge); 0.0625 kg/ha): 0.0
- herbicidal effect rating, CYPSE (CYPSE (Flatsedge); 0.1250 kg/ha): 0.0
